Assay results taken from ChEMBL document CHEMBL1201862, “PubChem BioAssay data set” (2004).
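Dose response: 5 concentrations. Exposure: 48 h. Format: 96-well plates. Endpoint: linear interpolation; highest concentration if not reached. The concentration for 50% growth inhibition is given as GI50.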 The source made the active and inactive calls. Rule as the data show it: active = GI50 up to about 1.1 µM and inactive = higher.

Assays:
Test in all cases: NCI tumour cell line growth inhibition, 48 h
786-0 = tested on: 786-0
NCI-H522 = tested on: NCI-H522
OVCAR-3 = tested on: OVCAR-3
SK-MEL-2 = tested on: SK-MEL-2
CAKI-1 = tested on: CAKI-1
NCI-H23 = tested on: NCI-H23
HT-29 = tested on: HT-29
SNB-19 = tested on: SNB-19
TK-10 = tested on: TK-10
KM12 = tested on: KM12
UACC-62 = tested on: UACC-62
K562 = tested on: K562
CCRF-CEM = tested on: CCRF-CEM
DLD-1 = tested on: DLD-1
OVCAR-8 = tested on: OVCAR-8
HOP-62 = tested on: HOP-62
SK-OV-3 = tested on: SK-OV-3
HOP-18 = tested on: HOP-18
SW-620 = tested on: SW-620
DMS-273 = tested on: DMS-273
RPMI-8226 = tested on: RPMI-8226
XF498 = tested on: XF498
OVCAR-4 = tested on: OVCAR-4
Malme-3M = tested on: Malme-3M
SF-268 = tested on: SF-268
MOLT-4 = tested on: MOLT-4
HOP-92 = tested on: HOP-92
RXF 631 = tested on: RXF 631
SNB-75 = tested on: SNB-75
LXFL 529 = tested on: LXFL 529
NCI-H460 = tested on: NCI-H460
EKVX = tested on: EKVX
SN12C = tested on: SN12C
LOX IMVI = tested on: LOX IMVI
A549 = tested on: A549
COLO 205 = tested on: COLO 205
A498 = tested on: A498
KM-20L2 = tested on: KM-20L2
SK-MEL-28 = tested on: SK-MEL-28
SK-MEL-5 = tested on: SK-MEL-5
SF-539 = tested on: SF-539
M14 = tested on: M14
UACC-257 = tested on: UACC-257
M19-MEL = tested on: M19-MEL
UO-31 = tested on: UO-31
ACHN = tested on: ACHN
IGROV-1 = tested on: IGROV-1
DMS-114 = tested on: DMS-114
U-251 = tested on: U-251
OVCAR-5 = tested on: OVCAR-5
NCI-H226 = tested on: NCI-H226
HCT-15 = tested on: HCT-15
HL-60 = tested on: HL-60
HCC 2998 = tested on: HCC 2998
SF-295 = tested on: SF-295
T47D = tested on: T47D
MDA-MB-435 = tested on: MDA-MB-435
NCI/ADR-RES = tested on: NCI/ADR-RES
DU-145 = tested on: DU-145
RXF 393 = tested on: RXF 393
HCT-116 = tested on: HCT-116
MDA-MB-231 = tested on: MDA-MB-231
MCF7 = tested on: MCF7
MDA-N = tested on: MDA-N
Hs-578T = tested on: Hs-578T
PC-3 = tested on: PC-3
BT-549 = tested on: BT-549

`CN1CCC23c4c5ccc(O)c4OC2C(=NN=C2CCC4(O)C6Cc7ccc(O)c8c7C4(CCN6C)C2O8)CCC3(O)C1C5` (stereo unspecified) was tested, and the GI50 (786-0) was > 100 µM (inactive), the GI50 (NCI-H522) was > 100 µM (inactive) and the GI50 (OVCAR-3) was > 100 µM (inactive). The GI50 (SK-MEL-2) was > 100 µM (inactive), the GI50 (CAKI-1) was > 100 µM (inactive) and the GI50 (NCI-H23) was > 100 µM (inactive). The GI50 (HT-29) was > 100 µM (inactive), the GI50 (SNB-19) was > 100 µM (inactive) and the GI50 (TK-10) was > 100 µM (inactive). For the same compound, the GI50 (KM12) was > 100 µM (inactive), the GI50 (UACC-62) was > 100 µM (inactive) and the GI50 (K562) was > 100 µM (inactive). The GI50 (CCRF-CEM) was > 100 µM (inactive), the GI50 (DLD-1) was > 100 µM (inactive) and the GI50 (OVCAR-8) was > 100 µM (inactive). For the same compound, the GI50 (HOP-62) was > 100 µM (inactive), the GI50 (SK-OV-3) was > 100 µM (inactive) and the GI50 (HOP-18) was > 100 µM (inactive). The GI50 (SW-620) was > 100 µM (inactive), the GI50 (DMS-273) was > 100 µM (inactive) and the GI50 (RPMI-8226) was > 100 µM (inactive). For the same compound, the GI50 (XF498) was > 100 µM (inactive), the GI50 (OVCAR-4) was > 100 µM (inactive) and the GI50 (Malme-3M) was > 100 µM (inactive). The GI50 (SF-268) was > 100 µM (inactive), the GI50 (MOLT-4) was > 100 µM (inactive) and the GI50 (HOP-92) was > 100 µM (inactive). For the same compound, the GI50 (RXF 631) was > 100 µM (inactive), the GI50 (SNB-75) was > 100 µM (inactive) and the GI50 (LXFL 529) was > 100 µM (inactive). The GI50 (NCI-H460) was > 100 µM (inactive), the GI50 (EKVX) was > 100 µM (inactive) and the GI50 (SN12C) was > 100 µM (inactive). The GI50 (LOX IMVI) was > 100 µM (inactive), the GI50 (A549) was > 100 µM (inactive) and the GI50 (COLO 205) was > 100 µM (inactive). The GI50 (A498) was > 100 µM (inactive), the GI50 (KM-20L2) was > 100 µM (inactive) and the GI50 (SK-MEL-28) was > 100 µM (inactive). The GI50 (SK-MEL-5) was > 100 µM (inactive), the GI50 (SF-539) was > 100 µM (inactive) and the GI50 (M14) was > 100 µM (inactive). For the same compound, the GI50 (UACC-257) was > 100 µM (inactive), the GI50 (M19-MEL) was > 100 µM (inactive) and the GI50 (UO-31) was > 100 µM (inactive). The GI50 (ACHN) was > 100 µM (inactive), the GI50 (IGROV-1) was > 100 µM (inactive) and the GI50 (DMS-114) was > 100 µM (inactive). For the same compound, the GI50 (U-251) was > 100 µM (inactive), the GI50 (OVCAR-5) was > 100 µM (inactive) and the GI50 (NCI-H226) was > 100 µM (inactive). For the same compound, the GI50 (HCT-15) was > 100 µM, the GI50 (HL-60) was > 100 µM (inactive) and the GI50 (HCC 2998) was > 100 µM (inactive). The GI50 (SF-295) was > 100 µM (inactive).

With `O=NN(CCCl)C(=O)NC1CCCCC1` [LOMUSTINE] the GI50 (786-0) was 16.4 µM (inactive), the GI50 (NCI-H522) was 24.4 µM (inactive) and the GI50 (OVCAR-3) was 66.2 µM (inactive). For the same compound, the GI50 (SK-MEL-2) was 74.3 µM (inactive), the GI50 (T47D) was 31.6 µM (inactive) and the GI50 (MDA-MB-435) was 3.36 µM (inactive). For the same compound, the GI50 (NCI/ADR-RES) was 51.3 µM (inactive), the GI50 (NCI-H23) was 68.5 µM (inactive) and the GI50 (HT-29) was 53.8 µM (inactive). The GI50 (SNB-19) was 52.5 µM (inactive), the GI50 (TK-10) was 73.1 µM (inactive) and the GI50 (KM12) was 71.4 µM (inactive). For the same compound, the GI50 (UACC-62) was 12.7 µM (inactive), the GI50 (K562) was 22 µM (inactive) and the GI50 (DU-145) was 42.1 µM (inactive). The GI50 (RXF 393) was 35.3 µM (inactive), the GI50 (HCT-116) was 38.8 µM (inactive) and the GI50 (CCRF-CEM) was 13 µM (inactive). The GI50 (DLD-1) was 30.2 µM (inactive), the GI50 (OVCAR-8) was 52.2 µM (inactive) and the GI50 (HOP-62) was 61.7 µM (inactive). For the same compound, the GI50 (SK-OV-3) was 71.8 µM (inactive), the GI50 (HOP-18) was 31.6 µM (inactive) and the GI50 (SW-620) was 27.7 µM (inactive). For the same compound, the GI50 (DMS-273) was 48.1 µM (inactive), the GI50 (RPMI-8226) was 16.9 µM (inactive) and the GI50 (XF498) was 64.9 µM (inactive). For the same compound, the GI50 (OVCAR-4) was 61.4 µM (inactive), the GI50 (Malme-3M) was 57.8 µM (inactive) and the GI50 (SF-268) was 24.5 µM (inactive). For the same compound, the GI50 (MOLT-4) was 18.4 µM (inactive), the GI50 (HOP-92) was 31.3 µM (inactive) and the GI50 (RXF 631) was 47.8 µM (inactive). The GI50 (MDA-MB-231) was 21.6 µM (inactive), the GI50 (SNB-75) was 37.2 µM (inactive) and the GI50 (LXFL 529) was 47.4 µM (inactive). For the same compound, the GI50 (NCI-H460) was 36.1 µM (inactive), the GI50 (EKVX) was 72.8 µM (inactive) and the GI50 (SN12C) was 46.6 µM (inactive). For the same compound, the GI50 (LOX IMVI) was 9.91 µM (inactive), the GI50 (A549) was 51.6 µM (inactive) and the GI50 (MCF7) was 35.5 µM (inactive). For the same compound, the GI50 (COLO 205) was 41.2 µM (inactive), the GI50 (A498) was 74.3 µM (inactive) and the GI50 (MDA-N) was 18.7 µM (inactive). For the same compound, the GI50 (KM-20L2) was 60.3 µM (inactive), the GI50 (SK-MEL-28) was 58.7 µM (inactive) and the GI50 (Hs-578T) was 37.9 µM (inactive). The GI50 (PC-3) was 32.4 µM (inactive), the GI50 (SK-MEL-5) was 54.7 µM (inactive) and the GI50 (BT-549) was 8.24 µM (inactive). The GI50 (SF-539) was 24 µM (inactive), the GI50 (M14) was 41 µM (inactive) and the GI50 (UACC-257) was 54.2 µM (inactive). For the same compound, the GI50 (M19-MEL) was 53 µM (inactive), the GI50 (UO-31) was 84.1 µM (inactive) and the GI50 (ACHN) was 69.3 µM (inactive). The GI50 (IGROV-1) was 47 µM (inactive), the GI50 (DMS-114) was 45.8 µM (inactive) and the GI50 (U-251) was 31.6 µM (inactive). The GI50 (OVCAR-5) was 81.1 µM (inactive), the GI50 (NCI-H226) was 64.4 µM (inactive) and the GI50 (HCT-15) was 29.9 µM. For the same compound, the GI50 (HL-60) was 17.3 µM (inactive), the GI50 (HCC 2998) was 56 µM (inactive) and the GI50 (SF-295) was 32 µM (inactive).
